Assay results reported in PubChem BioAssay (NCI).
Values joined by “and” are separate entries in the source; they are usually repeats but may differ in a detail not shown here. Equal values may be shown once.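 Results reflect a 48-hour exposure of cells in 96-well plates to compound at five concentrations. GI50: concentration for 50% inhibition of growth. At the TGI there is no net growth.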

What was measured:
Assay in all cases: NCI-60 cell line screen, 48 h
M14 melanoma = tested on: M14 melanoma
MDA-MB-231 breast = tested on: MDA-MB-231 breast
OVCAR-3 ovarian = tested on: OVCAR-3 ovarian
PC-3 prostate = tested on: PC-3 prostate
TK-10 renal = tested on: TK-10 renal
SK-MEL-28 melanoma = tested on: SK-MEL-28 melanoma
RPMI-8226 leukemia = tested on: RPMI-8226 leukemia
UACC-257 melanoma = tested on: UACC-257 melanoma
SF-268 CNS = tested on: SF-268 CNS
HOP-92 NSCLC = tested on: HOP-92 NSCLC

Compound | GI50 (M14 melanoma) [µM] | TGI (M14 melanoma) | GI50 (MDA-MB-231 breast) [µM] | TGI (MDA-MB-231 breast) [µM] | GI50 (OVCAR-3 ovarian) [µM] | TGI (OVCAR-3 ovarian) | GI50 (PC-3 prostate) [µM] | TGI (PC-3 prostate) [µM] | GI50 (TK-10 renal) [µM] | TGI (TK-10 renal) | GI50 (SK-MEL-28 melanoma) [µM] | TGI (SK-MEL-28 melanoma) | GI50 (RPMI-8226 leukemia) [µM] | TGI (RPMI-8226 leukemia) | GI50 (UACC-257 melanoma) [µM] | TGI (UACC-257 melanoma) | TGI (SF-268 CNS) | TGI (HOP-92 NSCLC) | GI50 (SF-268 CNS) [µM] | GI50 (HOP-92 NSCLC) [µM]
C[C@@H]1O[C@@H](O[C@@H]2[C@@H](O)[C@H](OCCc3ccc(O)c(O)c3)O[C@H](COC(=O)/C=C/c3ccc(O)c(O)c3)[C@H]2O)[C@H](O)[C@H](O)[C@H]1O | > 100 | > 100 µM | > 100 | > 100 | 13 | > 100 µM | 0.524 | > 100 | > 100 | > 100 µM | > 100 | > 100 µM | 13.7 | 43.4 µM | 62.9 | > 100 µM | – | – | – | –
Cc1cc(O)c(C(=O)CC2(O)C(=O)Nc3c(Cl)cc(Cl)cc32)c(=O)o1 (stereo not drawn) | – | > 100 µM | – | – | – | > 100 µM | – | – | – | > 100 µM | – | > 100 µM | – | > 100 µM | – | > 100 µM | > 100 µM | > 100 µM | – | –
COc1ccc2nc(-c3ccccc3)cc(Nc3ccc(C(C)=O)cc3)c2c1 | 2.61 | 7.25 µM | 0.0369 | 2.13 | – | – | 1.16 | 4.63 | 5.24 | 17.2 µM | 29.5 | > 100 µM | 1.72 | 4.31 µM | 12 | 32.6 µM | 31 µM | – | 7.51 | –
S=c1nc(Oc2ccc(Cl)c(Cl)c2)[nH]c(=S)[nH]1 | – | > 100 µM | – | > 100 | – | > 100 µM | – | – | – | > 100 µM | – | > 92.5 µM | – | 51.5 µM | – | > 80 µM | > 81.8 µM | 60.9 µM | – | –
Clc1ccc(-n2nnc(C3=NCCCN3)c2-c2ccccc2)cc1 | – | > 100 µM | – | – | – | > 100 µM | – | – | – | > 100 µM | – | > 100 µM | – | > 100 µM | – | > 100 µM | > 100 µM | > 100 µM | – | –
CC(=O)C1CC2(c3ccc(C)cc3)C(c3ccc(C)cc3)=C(c3ccc(C)cc3)C1(c1ccc(C)cc1)S2=O (stereo not drawn) | > 100 | > 100 µM | > 100 | > 100 | > 100 | > 100 µM | > 100 | > 100 | > 100 | > 100 µM | > 100 | > 100 µM | 31.1 | > 100 µM | > 100 | > 100 µM | > 100 µM | – | > 100 | –
CC(=O)NC1=C(Nc2ccc(C)cc2)C(=O)c2ccccc2C1=O | – | 25.3 µM | – | – | – | 45.7 µM | – | – | – | > 75 µM | – | 39.1 µM | – | 31.6 µM | – | 51.5 µM | > 75 µM | – | – | –
N#CCc1ccc(C(C#N)/C(CCCC(=O)Nc2cccc([N+](=O)[O-])c2)=N\NC(=O)NN)cc1 (stereo not drawn) | – | > 100 µM | – | – | – | > 100 µM | – | – | – | > 100 µM | – | > 100 µM | – | > 100 µM | – | > 100 µM | > 100 µM | > 100 µM | – | –
CC(=O)OCC1OC(OC2CC3C(C)(C)C(OC(C)=O)CC[C@]3(C)C3CCC45CC4(CC[C@H]5C(C)CC(O)[C@@H](O)C(C)(C)O)[C@]23C)C(O)C(O)C1O (stereo partly drawn) | 4.97 | 13.1 µM and 16.6 µM | – | – | – | 13.3 µM and 19.3 µM | – | – | 13.6 | 14 µM and 26.5 µM | 5.21 | 13.7 µM and 17.8 µM | 2.09 | 6.74 µM and 11.6 µM | – | 13.8 µM and 20.7 µM | 14.6 µM and 28.8 µM | 13.1 µM and 11.7 µM | 15.4 | 4.05
O=C(Nc1ccc(-n2cc(-c3ccncc3)c(-c3ccc(Cl)c(O)c3)n2)cc1)Nc1cc(C(F)(F)F)cc(C(F)(F)F)c1 | 1.76 | 3.56 µM | 2.11 | 4.93 | 1.52 | 2.89 µM | 2.05 | 6.1 | 3.05 | 11.4 µM | 2.01 | 4.34 µM | – | – | 2.01 | 5.22 µM | 3.27 µM | 3.99 µM | 1.62 | 1.34
O=C(CNC(=O)OCc1ccccc1)Oc1ccccc1 | – | > 100 µM | – | – | – | > 100 µM | – | – | – | > 100 µM | – | > 100 µM | – | > 100 µM | – | > 100 µM | > 100 µM | > 100 µM | – | –
C1CNCCNCCNCCN1 | – | > 100 µM | – | – | – | > 100 µM | – | – | – | > 100 µM | – | > 100 µM | – | > 100 µM | – | > 100 µM | – | – | – | –
NCCCN(CCCN)CCCNCc1c2ccccc2c(CNCCCN(CCCN)CCCN)c2ccccc12 | – | 28.5 µM | – | – | – | 38.6 µM | – | – | – | 23.1 µM | – | 21.9 µM | – | 19 µM | – | 27.3 µM | 57.7 µM | 89.1 µM | – | –
C/C=C(\C)C(=O)N[C@H]1[C@@H](OC(C)=O)C[C@]2(C)C3CC[C@@]4(C)C(CC[C@@H]4C(C)N(C)C)C3CCC2[C@H]1O (stereo partly drawn) | 2.02 | 3.72 µM | 3.23 | 10.7 | 5.56 | 19.1 µM | 2.88 | 24.2 | 8.32 | 24.5 µM | 1.83 | 3.67 µM | – | – | 1.98 | 5.16 µM | 13.3 µM | 15.5 µM | 2.9 | 1.04
CCCCCCCCCCC(C)CCCCCCC(=O)OCC(COP(=O)([O-])OCC[N+](C)(C)C)OC(=O)CCCCCCC(C)CCCCCCCCCC (stereo not drawn) | – | > 100 µM | – | – | – | > 100 µM | – | – | – | > 100 µM | – | > 100 µM | – | > 100 µM | – | > 100 µM | > 100 µM | > 100 µM | – | –
COc1ccc(C(=O)C(c2ccc(OC)cc2)C2(O)C(=O)Nc3c(C)cc(Cl)cc32)cc1 (stereo not drawn) | – | > 100 µM | – | – | – | > 100 µM | – | – | – | > 100 µM | – | > 100 µM | – | 80.4 µM | – | > 100 µM | > 100 µM | > 100 µM | – | –
Cc1cccc(C)c1NC(=O)CCCC(=O)CC(=O)/C=C/c1ccccc1 | – | > 100 µM | – | – | – | > 100 µM | – | – | – | > 100 µM | – | > 100 µM | – | > 100 µM | – | > 100 µM | > 100 µM | > 100 µM | – | –
CN(C)CC(/C(Cc1ccccc1)=N\NC(=O)c1ccncc1)c1ccccc1 (stereo not drawn) | – | > 100 µM | – | – | – | > 100 µM | – | – | – | > 100 µM | – | > 100 µM | – | 51.6 µM | – | > 100 µM | > 100 µM | > 100 µM | – | –
CC1Cc2c(N)nc(NN)nc2NC1=O (stereo not drawn) | – | > 100 µM | – | – | – | > 100 µM | – | – | – | > 100 µM | – | > 100 µM | – | > 100 µM | – | > 100 µM | – | – | – | –
S=c1[nH]c(=S)c2sc(=S)n(-c3ccccc3)c2[nH]1 | – | > 100 µM | – | – | – | > 100 µM | – | – | – | > 100 µM | – | > 100 µM | – | > 100 µM | – | > 100 µM | > 100 µM | > 100 µM | – | –
